Source: article PMC4222822, “Discovery and Characterization of a Potent and Selective Inhibitor of Aedes aegypti Inward Rectifier Potassium Channels” (PLoS ONE, 2014)
Read-outs that look alike come from different tables or passages of the source.

Tests used:
AeKir1 = AeKir1 (Aedes aegypti, UniProt L0EQS9); assay: Tl+ flux assay in T-REx-HEK293-AeKir1 cells; assay type: cell-based; settings: for IC50: read-out: IC50±SEM
Description: Tl^+ flux assays were performed essentially as described previously, [18], [19]. Briefly, stably transfected T-Rex-HEK-293 cells expressing AeKir1 channels were cultured overnight in 384-well plates (20,000 cells/20 µL/well black-walled, clear-bottomed BD PureCoat amine-coated plates (BD, Bedford, MA) with a plating media containing DMEM, 10% dialyzed FBS and 1 µg/mL tetracycline. The next day, the cell culture medium was replaced with a dye-loading solution containing assay buffer (Hanks Balanced Salt Solution with 20 mM HEPES, pH 7.3), 0.01% (w/v) Pluronic F-127 (Life Technologies, Carlsbad, CA), and 1.2 µM of the thallium-sensitive dye Thallos-AM (TEFlabs, Austin, TX). Following 1 hr incubation at room temperature, the dye-loading solution was washed from the plates and replaced with 20 µL/well of assay buffer. The plates were transferred to a Hamamatsu Functional Drug Screening System 6000 (FDSS6000; Hamamatsu, Hamamatsu (or Bridgewater, NJ), Japan) where 20 µL/well of test compounds in assay buffer (as prepared below) were added and allowed to incubate with the cells for 20 min. After the incubation period, a baseline recording was collected at 1 Hz for 10 s (excitation 470±20 nm, emission 540±30 nm) followed by a Tl^+ stimulus buffer addition (10 µL/well) and data collection for an additional 4 min. The Tl^+ stimulus buffer contains in (mM) 125 NaHCO3, 1.8 CaSO4, 1 MgSO4, 5 glucose, 12 Tl2SO4, 10 HEPES, pH 7.4. For Tl^+ flux assays on the mammalian channels Kir2.x, Kir4.1 and Kir6.2/SUR1 expressing cells, the Tl^+ stimulus buffer contained 1.8 mM Tl2SO4. Also, Tl^+ flux assays on Kir3.1/3.2/mGlu8 expressing cell, required addition of an EC80 concentration of glutamate (Sigma-Aldrich, St. Louis, MO) with the Tl^+ stimulus buffer. The test compounds were transferred to daughter polypropylene 384-well plates (Greiner Bio-One, Monroe, NC) using an Echo555 liquid handler (Labcyte, Sunnyvale, CA), and then diluted into assay buffer to generate a 2X stock in 0.6% DMSO (0.3% final). For Tl^+ flux assays on Kir6.2/SUR1 expressing cells, test compounds were diluted in assay buffer containing diazoxide (250 µM final) to induce channel activation. Concentration-response curves (CRCs) were generated by screening compounds at 3-fold dilution series in 4-point (1 µM–30 µM) or 11-point (1 nM–30 µM) CRCs. Tl^+ flux data were analyzed as previously described, [21], [22] using a combination of Excel (Microsoft Corp, Redmond, WA) with XLfit add-in (IDBS, Guildford, Surrey, UK) and OriginPro (OriginLab, Northampton, MA) software. Raw data were opened in Excel and each data point in a given trace was divided by the first data point from that trace (static ratio) followed by subtraction of data points from control traces generated in the presence of vehicle controls. The slope of the fluorescence increase beginning 5 s after Tl^+ addition and ending 15 s after Tl^+ addition was calculated. To compare the effect of DMSO on AeKir1-mediated Tl^+ flux, a one-way ANOVA was performed with a Tukey's multiple comparison test. Prism software (GraphPad Software) was used to generate CRC from Tl^+ flux. Half-inhibition concentration (IC50) values were calculated from fits using a four parameter logistic equation.

mosquitoes = assay: Toxicity when applied to the cuticle (topical); assay type: in vivo; settings: Piermarini, unpublished observations
[1] = tested on: adult female mosquitoes (A. aegypti); design: method as in PMID 23734226, PMID 24959745; settings: within 24 h; cited from earlier work
[2] = tested on: adult female mosquitoes (A. aegypti); design: method as in PMID 23734226, PMID 24959745; settings: after loading hemolymph with 900 nl of a PBS vehicle; cited from earlier work
AeKir2B = AeKir2B (Aedes aegypti, UniProt L0EQ40); design: method as in PMID 24959745; settings: cited from earlier work
[3] = tested on: adult female mosquitoes (A. aegypti); assay: Mosquito excretion experiments (excretory capacity); assay type: in vivo, Aedes aegypti; settings: probenecid 3.4 nmol per mosquito in 900 nL vehicle, 1 h after injection; mean ±SEM
Description: The Aedes aegypti mosquito colony used in the present study is identical to that described previously. As before, only adult female mosquitoes 3–10 days post emergence were utilized for experiments.
The excretory capacity of mosquitoes was measured as described. In brief, after anesthetizing mosquitoes on ice, their hemolymph was injected as described above with 900 nL of a K^+-PBS vehicle containing 1.15% DMSO, 0.077% β-cyclodextrin, and 0.008% Solutol, or the vehicle containing VU625 (0.77 mM) to deliver a dose of 690 pmol of VU625 per mosquito. In experiments where probenecid was used, the vehicle was supplemented with water- soluble probenecid […] to deliver a dose of 3.4 nmol of probenecid per mosquito. After injection, the mosquitoes were placed immediately in a graduated, packed-cell volume tube (MidSci, St. Louis, MO; 5 mosquitoes per tube) and held at 28°C. The volume of urine excreted at 60 min post injection was measured as described previously, and all mosquitoes were confirmed to be alive at the end of 60 min period. For each treatment, 6–18 independent trials of 5 mosquitoes per treatment were performed.
Prism (GraphPad Software) was used to generate a dose-response curve for the toxicity of VU625; the doses (x-axis) were first log transformed and then the mortality data was normalized using Prism, where the smallest value and largest values in a data set equal ‘0%’ and ‘100%’, respectively. The data were then fitted using a ‘biphasic’ algorithm (<100 constraint) to calculate potencies (ED25 and ED75 values). To compare 1) the toxic effects among the vehicle, probenecid, VU625, and VU625 + probenecid treatments, and 2) the excretory capacity among the vehicle, probenecid, VU625, and VU625 + probenecid treatments, one-way ANOVAs were performed with Newman-Keuls posttests.

[4] = Table 2, southern amide SAR, 11-point CRCs on AeKir1 in Tl+ flux, triplicate on two separate days
[5] = Table 3, central core SAR, 11-point CRCs on AeKir1 in Tl+ flux, triplicate on two separate days

Sequence of AeKir1 (L0EQS9 entry or part of it): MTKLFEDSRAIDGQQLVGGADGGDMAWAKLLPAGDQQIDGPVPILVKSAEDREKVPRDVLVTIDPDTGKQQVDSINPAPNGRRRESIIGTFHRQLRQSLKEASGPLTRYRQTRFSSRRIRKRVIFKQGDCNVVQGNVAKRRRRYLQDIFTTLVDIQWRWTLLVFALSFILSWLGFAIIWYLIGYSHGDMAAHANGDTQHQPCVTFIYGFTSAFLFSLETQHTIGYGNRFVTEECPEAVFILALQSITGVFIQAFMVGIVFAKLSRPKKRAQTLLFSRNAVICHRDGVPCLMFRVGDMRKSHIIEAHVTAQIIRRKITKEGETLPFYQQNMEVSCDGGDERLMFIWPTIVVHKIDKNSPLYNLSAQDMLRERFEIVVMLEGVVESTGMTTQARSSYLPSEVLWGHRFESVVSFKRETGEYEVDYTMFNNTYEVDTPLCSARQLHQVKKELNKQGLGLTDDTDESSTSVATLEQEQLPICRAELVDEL
Sequence of AeKir2B (L0EQ40 entry or part of it): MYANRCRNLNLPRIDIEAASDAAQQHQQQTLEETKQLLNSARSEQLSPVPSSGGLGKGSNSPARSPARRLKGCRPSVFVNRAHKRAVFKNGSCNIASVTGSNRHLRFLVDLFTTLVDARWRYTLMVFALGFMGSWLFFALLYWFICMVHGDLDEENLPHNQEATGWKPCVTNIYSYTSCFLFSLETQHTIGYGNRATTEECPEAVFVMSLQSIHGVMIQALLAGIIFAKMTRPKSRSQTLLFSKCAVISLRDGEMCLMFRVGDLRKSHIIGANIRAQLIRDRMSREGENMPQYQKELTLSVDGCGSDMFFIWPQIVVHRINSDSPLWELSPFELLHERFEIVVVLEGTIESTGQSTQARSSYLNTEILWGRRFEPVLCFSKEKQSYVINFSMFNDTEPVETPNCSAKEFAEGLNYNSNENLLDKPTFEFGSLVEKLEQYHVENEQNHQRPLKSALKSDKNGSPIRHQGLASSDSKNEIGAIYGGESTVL

Structure (SMILES)	IC50 (AeKir1; [4])	IC50 (AeKir1; [5])	further results
COc1cccc(NS(=O)(=O)c2ccc3c(c2)CC(C)N3C(=O)C(F)(F)F)c1 (stereo not shown) [3b]	0.58 ± 0.04 µM	–	–
COc1cccc(NS(=O)(=O)c2ccc3c(c2)CC(C)N3C(=O)c2cccc(F)c2)c1 (stereo not shown) [3c]	5.2 ± 0.4 µM	–	–
COc1cccc(NS(=O)(=O)c2ccc3c(c2)CC(C)N3C(=O)c2ccccc2C)c1 (stereo not shown) [3d]	4.41 ± 1.11 µM	–	–
COc1cccc(NS(=O)(=O)c2ccc3c(c2)CC(C)N3C(=O)c2cccc(C)c2)c1 (stereo not shown) [3e]	3.87 ± 1.97 µM	–	–
COc1cccc(NS(=O)(=O)c2ccc3c(c2)CC(C)N3C(=O)c2ccc(C)cc2)c1 (stereo not shown) [3f]	> 30 µM	–	–
COc1cccc(NS(=O)(=O)c2ccc3c(c2)CC(C)N3C(=O)c2ccccn2)c1 (stereo not shown) [3g]	4.4 ± 0.5 µM	–	–
COc1cccc(NS(=O)(=O)c2ccc3c(c2)CC(C)N3S(=O)(=O)c2ccccc2)c1 (stereo not shown) [3h]	3.29 ± 0.89 µM	–	IC50±SEM (AeKir1; [4]): less activity
COc1cccc(NS(=O)(=O)c2ccc3c(c2)CC(C)N3C(=O)N(C)C)c1 (stereo not shown) [3i]	2.09 ± 0.49 µM	–	–
COc1cccc(NS(=O)(=O)c2ccc3c(c2)CC(C)N3S(C)(=O)=O)c1 (stereo not shown) [3j]	2.82 ± 0.48 µM	–	–
COc1cccc(NS(=O)(=O)c2ccc3c(c2)CC(C)N3S(=O)(=O)C2CC2)c1 (stereo not shown) [3k]	0.76 µM	–	–
COc1cccc(NS(=O)(=O)c2ccc3c(c2)CC(C)N3S(=O)(=O)C(C)(C)C)c1 (stereo not shown) [3l]	0.82 ± 0.48 µM	–	–
COc1cccc(NS(=O)(=O)c2ccc3c(ccn3C)c2)c1 [4a]	–	0.55 ± 0.08 µM	–
COc1cccc(NS(=O)(=O)c2ccc3c(c2)cc(C)n3C)c1 [4b]	–	0.97 ± 0.1 µM	–
COc1cccc(NS(=O)(=O)c2ccc3c(c2)CCC(=O)N3)c1 [4c]	–	> 30 µM	–
COc1cccc(NS(=O)(=O)c2ccc3c(c2)OCC(=O)N3)c1 [4d]	–	> 30 µM	–
COc1cccc(NS(=O)(=O)c2ccc3c(c2)CC(=O)N3C)c1 [4e]	–	> 30 µM	–
COc1cccc(NS(=O)(=O)c2ccc3c(c2)CCN3C(C)=O)c1 [4f]	–	1.15 ± 0.05 µM	loss of potency relative to VU625 (AeKir1; AeKir1 Tl+ flux): ~3 fold
Cc1ccc(OCC(O)Cn2c(=N)n(Cc3ccccc3)c3ccccc32)cc1 (stereo not shown) [VU573]	–	–	toxicity when applied to the cuticle (mosquitoes): lack of topical activity; effect of hemolymph injection on mosquitoes [1]: incapacitation and/or death within 24 h; effect on excretory capacity [2]: decrease in the excretory capacity; effect on AeKir2B (AeKir2B): activates AeKir2B
O=[N+]([O-])c1ccc(CN2CCOCCOCCN(Cc3ccc([N+](=O)[O-])cc3)CCOCC2)cc1 [VU590]	–	–	toxicity when applied to the cuticle (mosquitoes): lack of topical activity; effect of hemolymph injection on mosquitoes [1]: incapacitation and/or death within 24 h; effect on excretory capacity [2]: decrease in the excretory capacity; effect on AeKir2B (AeKir2B): selective inhibitor of AeKir1 over AeKir2B
CCCN(CCC)S(=O)(=O)c1ccc(C(=O)O)cc1 [probenecid, reference compound]	–	–	excretory capacity (urine excreted) [3]: 467.8±33.53 nL/female
